Measurements reported in patent US20160317468A1, “USES OF CANNABIDIOL FOR TREATMENT OF INFANTILE SPASMS” (priority 2015, published 2016).

Experiments:
[1] = test system: infantile spasms; assay: Clinical trial of a composition comprising cannabidiol in subjects with infantile spasms, overnight video-EEG on day 14; type: in vivo; settings: human subjects 6 to 36 months who failed hormonal therapy and vigabatrin, CBD titrated to 40 mg/kg/day TID, control receives placebo
Procedure: Human subjects with video-EGG confirmed infantile spasms, between the ages of 6 months and 36 months, who have failed adequate treatments with hormonal therapy (adrenocorticotropic hormone (ACTH) (e.g., 150 IU/m2/day×2 weeks) and/or prednisolone (e.g., 8 mg/kg/day×2 weeks) and vigabatrin (e.g., 150 mg/kg/day×2 weeks)) will receive a composition comprising cannabidiol (“CBD”) according to the treatment schedule of Table 5. The control group receives placebo.
The 40 mg/kg/day treatment is optionally extended for up to one year in the cannabidiol group for subjects who display a response (FIG. 1). The cannabidiol dosage is tapered in the cannabidiol group according to Table 6.

[2] = test system: infantile spasms; settings: high-dose study; intramuscular ACTH therapy; cited from earlier work

Compound: C=C(C)[C@@H]1CCC(C)=C[C@H]1c1c(O)cc(CCCCC)cc1O [cannabidiol, (−)-trans-2-p-mentha-1,8-dien-3-yl-5-pentylresorcinol]
- symptoms of infantile spasms on overnight video-EEG, cannabidiol group relative to control group [1]: reduced symptoms of infantile spasms

Compound: adrenocorticotropic hormone (SYSMEHFRWGKPVGKKRRPVKVYPNGAEDESAEAFPLEF; Corticotropin; UniProt P01189 138-176, looked up) [ACTH]
- patients with cessation of seizures and normal EEG patterns [2]: 13 of the 15
